{
  "source": "patent US20240033211A1",
  "about": "“EXTRACT OF AT LEAST ONE PLANT OF THE CROCUS SATIVUS SPECIES COMPRISING A HIGH CONTENT OF CROCINS AND A LOW CONTENT OF SAFRANAL, AND COSMETIC USE THEREOF AS ANTIOXIDANT” (L'OREAL, priority 2020, published 2024)",
  "test": "Study of squalene peroxidation (UVA, hematoporphyrin photosensitizer, singlet oxygen)",
  "assay_type": "biochemical",
  "text": "Protocol: The principle of the test is to determine, via the assaying of squalene (Sq) and its photo-oxidation product, the efficacy of an active agent against this form of photo-peroxidation.\nThe test makes use of squalene in the presence of a photosensitizer, hematoporphyrin. Under the action of UVA rays, singlet oxygen (^1O2) is generated. This highly reactive form of oxygen degrades the squalene by oxidation of the double bonds to form squalene hydroperoxides (Sq-OOH).\nIn the context of the test, the exposure of squalene combined with hematoporphyrin is carried out in the presence of various concentrations of extract obtained according to Example 2 (according to the invention) and according to Example 3 (outside the invention). The reaction medium is ethanol.\nEquipment and Reagents: • Squalene [Sigma S-3626] • Hematoporphyrine Free Base (approx. 70%) [Sigma—ref H-7253] • HPLC or UPLC system in reverse phase mode, detection in UV mode (205 nm)\nProcedure: • ethanol solution containing 500 μg/ml of Sq and 2 μg/ml hematoporphyrin+extract to be tested • expose to UVA rays for the dose of 5 J/cm^2 • measure the amount of Sq and SqOOH before and after exposure • plot % inhibition as a function of the amount of extract tested.\n*IC25: concentration of raw material needed to inhibit squalene peroxidation by 25%. […]",
  "data": [
    {"substance": "vitamin E", "values": [
      {"measurement": "IC50 (squalene peroxidation)", "setting": "comparison value for vitamin E, printed as % (=250 ppm)", "result": "~0.025", "unit": "%"},
      {"measurement": "IC50 (concentration of raw material needed to inhibit squalene peroxidation by 50%)", "setting": "solution in ethanol, UVA 5 J/cm^2", "result": "~250", "unit": "ppm"}
    ]}
  ]
}
